Results on 4 compounds are retold here after patent publication US6072057A, “1H-4(5)-cyclo-substituted imidazole derivatives as histamine H3 receptor agents” (Gliatech Inc., priority 1998, dated 2000).

One experiment deals with T1, Histamine H3 receptor (Rattus norvegicus, UniProt Q9QYN8).
T1 construct: Rat cortices were mechanically homogenized; from tissue; host or cells: rat cerebral cortex membranes
Nature of the experiment: In Vitro Histamine H3 Receptor Binding Analysis ([3H]-Nα-methylhistamine, rat cortical membranes). Particulars: pH 7.4, 25° C., 40 minutes. As for the experimental part:
Histamine H3 receptor affinity was determined in rat cortical membranes using the H3 selective agonist ligand, [^3 H]-N^α -methylhistamine (78.9 Ci/mmole, DuPont NEN Research Products, Boston, Mass.) according to the method of West et al., (1990) Mol. Pharmacol. 38: 610-613 with modifications. Briefly, animals were sacrificed by decapitation and the cerebral cortex was rapidly removed. Rat cortices were mechanically homogenized with an Omni 1000 motor driven homogenizer in 10 volumes (wt/vol) of Krebs-Ringers Hepes buffer (pH 7.4) containing the following protease inhibitors; EDTA (10 mM), PMSF (0.1 mM), chymostatin (0.2 mg/50 mL) and leupeptin (0.2 mg/50 mL). The homogenate was centrifuged in a Sorvall at ~40,000× g for 30 min. […] Protein concentrations were determined by Coomassie Plus Protein Assay (Pierce, Rockford, Ill.).
The binding assay was carried out in polypropylene tubes in a total volume of 0.4 ml of 50 mM Na^+ Phosphate buffer (pH 7.4), containing 150-200 μg of tissue protein, 0.8-1.2 nM [^3 H]-N^α -methylhistamine and 0.3 to 10,000 nM GT-2016. […] Filters were transferred to polyethylene minivials and counted in 3.5 ml of scintillation fluid (Ecolume, ICN Biomedicals, Inc.). […] Saturation and competition experiments were analyzed with the ReceptorFit saturation and competition curve fittingprograms (Lundon Software, Inc., Cleveland, OH).

The next experiment relates to H3 histamine receptor. As to conditions: tested as a racemic mixture; cited from earlier work.
The test system of experiment [1] is H3 receptor. Particulars: cited from earlier work.
The conditions of experiment [2]: intraventricular, saline and pentobarbital-treated rats; cited from earlier work.
For experiment [3] the following is noted: intraventricular, rabbits; cited from earlier work.
Experiment [4] concerns H3 receptor. Particulars: cat (Lin et al., 1990); cited from earlier work.
For experiment [5], the system named is synthesis and release of histamine. Particulars: in vivo studies; cited from earlier work.
Experiment [6] deals with H3 receptor. Particulars: rats; cited from earlier work.

Like-named read-outs stand apart in the source and are kept apart here.

T1 sequence (Q9QYN8 whole entry): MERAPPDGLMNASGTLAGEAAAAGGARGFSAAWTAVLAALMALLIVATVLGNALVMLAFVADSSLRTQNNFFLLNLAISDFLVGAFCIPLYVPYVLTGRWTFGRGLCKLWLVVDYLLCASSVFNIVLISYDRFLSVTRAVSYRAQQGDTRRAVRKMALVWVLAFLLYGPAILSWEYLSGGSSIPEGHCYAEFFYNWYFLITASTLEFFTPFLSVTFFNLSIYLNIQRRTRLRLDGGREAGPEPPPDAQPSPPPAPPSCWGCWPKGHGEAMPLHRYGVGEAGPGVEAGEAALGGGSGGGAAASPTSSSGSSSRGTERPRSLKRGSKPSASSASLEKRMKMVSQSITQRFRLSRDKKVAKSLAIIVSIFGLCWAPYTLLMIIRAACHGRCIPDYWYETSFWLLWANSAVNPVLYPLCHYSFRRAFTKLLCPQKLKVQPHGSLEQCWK

As usually defined, the Ki is the dissociation constant of the complex between target and ligand, obtained from inhibition or displacement. Low values mean a stronger hold on the target, high ones a looser hold on the target. With `NC1CCC(c2c[nH]cn2)CC1` (stereo not drawn), on Histamine H3 receptor, the affinity, expressed as Ki, was 20 nM. This lies in the double-digit nanomolar range.

With `NC1CC1c1c[nH]cn1` (racemic) [2-(4-imidazoyl)-cyclopropylamine], in the experiment with H3 histamine receptor, the “H3 histamine receptor agonist activity” value is listed as “moderate”.

In the case of `NCCc1c[nH]cn1` [histamine], the “stimulation of the H3 autoreceptor” value in the experiment on H3 receptor [1] is on record as “capable of stimulating this autoreceptor”. Besides, the “spontaneous locomotor activity, grooming and exploratory behavior” value in experiment [2] is reported as “increased”. Besides, the “arousal EEG pattern” value in experiment [3] was “induces the appearances of an arousal EEG pattern”.

As to `S=C(NC1CCCCC1)N1CCC(c2cnc[nH]2)CC1` [thioperamide], the wakefulness result with H3 receptor [4] is given as “enhanced wakefulness in a dose-dependent fashion”. Moreover, in experiment [5], the “synthesis and release of histamine” value is listed as “can increase”. Moreover, in the experiment on H3 receptor [6], the “slow wave and REM sleep” value was “decrease slow wave and REM sleep”; the wakefulness entry is listed as “increase wakefulness”.
